These are literature values, as cited in patent US10967066B2, “Stapled acid-sensitive endosome disrupting alginates” (University of Pittsburgh—Of the Commonwealth System of …, priority 2015, dated 2021).

One series deals with tumors. The note with it: mice.

`CC(C)c1cc(C(=O)[O-])c(O)c(C(C)C)c1.CC(C)c1cc(C(=O)[O-])c(O)c(C(C)C)c1.[Cu+2]` [Cu(II)DIPS, copper(II) (3,5-diisopropylsalicylate)2]: the “hydrogen peroxide accumulation and cell death in cancer cells” value in the series with cancer cells is recorded as “induce hydrogen peroxide accumulation due to the conversion of radical oxygen into hydrogen peroxide, with this accumulation of hydrogen peroxide leading to cell death in cancer cells”. For the same compound, the clearing tumors entry in the series on tumors is “effective in clearing tumors in mice”.
